Results from patent US20210386757A1, “Methods of Treating Menopausal Symptoms Using Low Dose Progesterone” (priority 2018, published 2021).

Key:
[1] = system: symptoms associated with menopause transition; assay: Observational study of low dose oral micronized progesterone in menopause transition, Menopause Rating Scale (MRS); type: in vivo, women
Description: Women between the ages of 40 to 55 years of age who were experiencing symptoms consistent with menopause transition were offered a trial of a low dose progesterone to alleviate their symptoms. The primary complaint for inclusion in the study was alterations in mood defined as depressive mood, irritability, or anxiety on the Menopause Rating Scale (MRS). A score of 2-4 on these mood changes was required to be included in the study. One additional symptom (sleep problems, hot flushes, physical and mental exhaustion) on the MRS was required, with a minimum score of 1, to be included. Patients with a history of breast cancer, actively trying to conceive, or in menopause were excluded from the study. Menopause was defined as no menses for greater than one year or surgical removal of the ovaries. Patients were consented for a trial of oral micronized progesterone at 25 mg twice a day. Response to treatment was evaluated in the office after 3 months of treatment. Data was collected over a one-year time period, September 2018-September 2019. The menopause transition time, referred to as perimenopause, includes both the early and late perimenopausal group. Patient selection was classified according to STRAW (Stages of Reproductive Aging Workshop) classification. Late perimenopause was defined as menstruation in the previous/last 2-12 months, but not in the previous/last 2 months. Early perimenopause was defined as increasing irregularity of menses without skipping periods (7 days difference) from the beginning of a given cycle to the next. The Menopause Rating Scale was utilized to quantify qualitative symptoms associated with the menopause transition. Given treatment differences in the symptoms that impact person transitioning through menopause, attention was focused on 6 components of the MRS; hot flushes, sleep problems, depressive mood, irritability, anxiety, and physical/mental exhaustion. The scoring scheme increases point by point with increasing severity of subjectively perceived symptoms in each of those 6 items (severity 0 [no complaints] . . . 4 scoring points [very severe symptoms]). The respondent rated their personal symptoms on a 0 to 4 scale for each item. The MRS was chosen as a result of being a reliable measure of quality of life in aging women of various regions over time.

[2] = system: symptoms of the menopause transition state; assay: Trial of progesterone for treating symptoms of the menopause transition state (Example 1); type: in vivo, women; conditions: greater than 100 patients, low dose e.g. 25 mg twice a day
Protocol: It is apparent based on initial observations that supplementing with a low dose progesterone alleviates symptoms in women transitioning into menopause. The question then becomes, if a person is experiencing symptoms of estrogen dominance does failing to treat estrogen dominance result in a greater risk of breast cancer, uterine cancer, and cardiovascular disease. Supplementing with progesterone, e.g., at 25 mg twice a day can improve many symptoms associated with menopause transition. […] Micronized progesterone (25 mg) Dosing regimens of interest: One tablet bid (twice a day); Two tablets qhs (each night at bedtime); One tablet qam (every morning), two tablets qhs (each night at bedtime).

Structure (SMILES): CC(=O)[C@H]1CC[C@H]2[C@@H]3CCC4=CC(=O)CC[C@]4(C)[C@H]3CC[C@]12C [micronized progesterone, progesterone]
- response of patients who altered the dosing regimen ([1]; once a day or two tablets (50 mg) at night, 14 patients excluded from the study): noted benefits and chose to continue the medication
- patients with at least a one-point improvement in MRS symptom score, physical and mental exhaustion ([1]; oral 25 mg twice a day, 3 months, 12 of 19 patients who noted physical and mental exhaustion): 63%
- patients with at least a one-point improvement in MRS symptom score, sleep problems ([1]; oral 25 mg twice a day, 3 months, 27 of 32 patients who noted sleep problems): 84%
- patients with at least a one-point improvement in MRS symptom score, hot flushes ([1]; oral 25 mg twice a day, 3 months, 44 of 48 patients who noted hot flushes): 92%
- patients who did not report side effects to the medication ([1]; oral 25 mg twice a day, 3 months, of 55 patients evaluated): 54 patients
- patients reporting MRS symptom score of 0 ([1]; oral 25 mg twice a day, at 3 months, 44 of 55 patients): 80%
- discontinuation because of a diagnosis of breast cancer, thromboembolic event, or abnormal uterine bleeding ([1]; oral 25 mg twice a day, during the study period): No patient discontinued the medication
- patients with at least a two-point improvement in MRS symptom score related to mood changes ([1]; oral 25 mg twice a day, evaluated at 3 months, 52 of 55 patients): 94.5%
- discontinuation because of an adverse effect ([1]; oral 25 mg twice a day, prior to the 3 month follow up): One patient discontinued the medication prior to the 3 month follow up secondary to worsening headaches
- subsequent diagnosis of breast cancer, uterine cancer, or a cardiovascular event [2]: not one patient was subsequently diagnosed with breast cancer, uterine cancer, or a cardiovascular event
